In ChEMBL document CHEMBL4196033, “Potent hydrazone derivatives targeting esophageal cancer cells” (Eur J Med Chem, 2018):
Activity calls are given as the source filed them. The calls are words filed in the database; no cut-off is given here.

Legend:
ECa-109 cell line [1] = assay: Induction of morphological changes in human EC109 cells assessed as chromatin condensation after 48 hrs by Hoechst 33342 staining based fluorescence microscopic method; format: functional, cell-based
ECa-109 cell line [2] = assay: Induction of apoptosis in human EC109 cells assessed as increase in cleaved caspase-8 protein expression after 48 hrs by Western blot analysis; format: functional, cell-based
ECa-109 cell line [3] = assay: Induction of apoptosis in human EC109 cells assessed as increase in cleaved caspase-9 protein expression after 48 hrs by Western blot analysis; format: functional, cell-based
Mus musculus [4] = assay: Acute toxicity in C57BL/6 mouse assessed as histopathological changes in heart at 2 g/kg, ig measured for 2 weeks by hematoxylin and eosin staining based microscopic method; format: organism-based; settings: in vivo, po, 2000 mg/kg, 336 h
EC9706 [5] = assay: Effect on Prxs-4 protein expression in human EC9706 cells at 2 to 8 uM after 48 hrs by Western blot analysis; format: functional, cell-based
EC9706 [6] = assay: Cell cycle arrest in human EC9706 cells assessed as increase in G0/G1 phase population at 4 uM after 24 hrs by propidium iodide staining based flow cytometry relative to control; format: functional
ECa-109 cell line [7] = assay: Induction of apoptosis in human EC109 cells assessed as early apoptotic cells at 2 uM after 48 hrs by Annexin V-FITC/propidium iodide staining based flow cytometry (reference value: 0.43 to 1.15%); format: functional
ECa-109 cell line [8] = assay: Induction of apoptosis in human EC109 cells assessed as live cells at 8 uM after 48 hrs in presence of caspase inhibitor Z-VAD-FMK by Annexin V-FITC/propidium iodide staining based flow cytometry (reference value: 96.2%); format: functional
PC-3 = assay: Antiproliferative activity against human PC3 cells after 72 hrs by MTT assay; format: functional, cell-based; settings: PC-3, 72 h
ECa-109 cell line [9] = assay: Induction of apoptosis in human EC109 cells assessed as increase in Bax protein expression after 48 hrs by Western blot analysis; format: functional, cell-based
ECa-109 cell line [10] = assay: Antiproliferative activity against human EC109 cells after 72 hrs by MTT assay; format: functional, cell-based; settings: ECa-109, 72 h
EC9706 [11] = assay: Induction of morphological changes in human EC9706 cells assessed as apoptotic body formation after 48 hrs by Hoechst 33342 staining based fluorescence microscopic method; format: functional, cell-based
ECa-109 cell line [12] = assay: Induction of ROS generation in human EC109 cells at 2 uM after 24 hrs by DCFH-DA staining based flow cytometry relative to control; format: functional
EC9706 [13] = assay: Induction of apoptosis in human EC9706 cells assessed as live cells at 4 uM after 48 hrs by Annexin V-FITC/propidium iodide staining based flow cytometry (reference value: 85.5 to 96%); format: functional
EC9706 [14] = assay: Induction of apoptosis in human EC9706 cells assessed as increase in cleaved caspase-9 protein expression after 48 hrs by Western blot analysis; format: functional, cell-based
ECa-109 cell line [15] = assay: Induction of apoptosis in human EC109 cells assessed as late apoptotic cells at 4 uM after 48 hrs by Annexin V-FITC/propidium iodide staining based flow cytometry (reference value: 0.2 to 1.74%); format: functional
ECa-109 cell line [16] = assay: Effect on Prxs-1 protein expression in human EC109 cells at 2 to 8 uM after 48 hrs by Western blot analysis; format: functional, cell-based
ECa-109 cell line [17] = assay: Effect on Prxs-2 protein expression in human EC109 cells at 2 to 8 uM after 48 hrs by Western blot analysis; format: functional, cell-based
EC9706 [18] = assay: Cell cycle arrest in human EC9706 cells assessed as increase in S phase population at 2 uM after 24 hrs by propidium iodide staining based flow cytometry relative to control; format: functional
ECa-109 cell line [19] = assay: Induction of apoptosis in human EC109 cells assessed as increase in p53 protein expression after 48 hrs by Western blot analysis; format: functional, cell-based
ECa-109 cell line [20] = assay: Induction of apoptosis in human EC109 cells assessed as early apoptotic cells at 4 uM after 48 hrs by Annexin V-FITC/propidium iodide staining based flow cytometry (reference value: 0.43 to 1.15%); format: functional
ECa-109 cell line [21] = assay: Induction of apoptosis in human EC109 cells assessed as necrotic cells at 4 uM after 48 hrs by Annexin V-FITC/propidium iodide staining based flow cytometry (reference value: 0.74 to 1.18%); format: functional
EC9706 [22] = assay: Cell cycle arrest in human EC9706 cells assessed as increase in G0/G1 phase population at 8 uM after 24 hrs by propidium iodide staining based flow cytometry relative to control; format: functional
ECa-109 cell line [23] = assay: Effect on Prxs-4 protein expression in human EC109 cells at 2 to 8 uM after 48 hrs by Western blot analysis; format: functional, cell-based
Mus musculus [24] = assay: Acute toxicity in C57BL/6 mouse assessed as histopathological changes in kidney at 2 g/kg, ig measured for 2 weeks by hematoxylin and eosin staining based microscopic method; format: organism-based; settings: in vivo, po, 2000 mg/kg, 336 h
Mus musculus [25] = assay: Acute toxicity in C57BL/6 mouse assessed as histopathological changes in spleen at 2 g/kg, ig measured for 2 weeks by hematoxylin and eosin staining based microscopic method; format: organism-based; settings: in vivo, po, 2000 mg/kg, 336 h
ECa-109 cell line [26] = assay: Induction of ROS generation in human EC109 cells at 2 to 4 uM after 24 hrs in presence of anti-oxidant NAC by DCFH-DA staining based flow cytometry; format: functional, cell-based
EC9706 [27] = assay: Upregulation of p27 protein expression in human EC9706 cells at 8 uM after 24 to 48 hrs by Western blot analysis relative to control; format: functional
GES1 = assay: Antiproliferative activity against human GES-1 cells after 48 hrs by MTT assay; format: cell-based; settings: GES1, 48 h
EC9706 [28] = assay: Induction of apoptosis in human EC9706 cells assessed as early apoptotic cells at 2 uM after 48 hrs by Annexin V-FITC/propidium iodide staining based flow cytometry (reference value: 0.68 to 1.58%); format: functional
ECa-109 cell line [29] = assay: Upregulation of p27 protein expression in human EC109 cells at 4 uM after 24 to 48 hrs by Western blot analysis relative to control; format: functional
EC9706 [30] = assay: Induction of apoptosis in human EC9706 cells assessed as necrotic cells at 4 uM after 48 hrs by Annexin V-FITC/propidium iodide staining based flow cytometry (reference value: 1.1 to 1.31%); format: functional
EC9706 [31] = assay: Induction of apoptosis in human EC9706 cells assessed as late apoptotic cells at 2 uM after 48 hrs by Annexin V-FITC/propidium iodide staining based flow cytometry (reference value: 1.29 to 1.99%); format: functional
ECa-109 cell line [32] = assay: Upregulation of p27 protein expression in human EC109 cells at 8 uM after 24 to 48 hrs by Western blot analysis relative to control; format: functional
ECa-109 cell line [33] = assay: Induction of apoptosis in human EC109 cells assessed as increase in tBid protein expression at 2 to 8 uM after 48 hrs by Western blot analysis; format: functional, cell-based
EC9706 [34] = assay: Cell cycle arrest in human EC9706 cells assessed as decrease in G2/M phase population at 8 uM after 24 hrs by propidium iodide staining based flow cytometry relative to control; format: functional
EC9706 [35] = assay: Induction of ROS generation in human EC9706 cells at 4 uM after 24 hrs by DCFH-DA staining based flow cytometry relative to control; format: functional
EC9706 [36] = assay: Effect on Prxs-5 protein expression in human EC9706 cells at 2 to 8 uM after 48 hrs by Western blot analysis; format: functional, cell-based
EC9706 [37] = assay: Induction of apoptosis in human EC9706 cells assessed as necrotic cells at 2 uM after 48 hrs by Annexin V-FITC/propidium iodide staining based flow cytometry (reference value: 1.1 to 1.31%); format: functional

## COc1ccc(/C=N/NC(=O)c2cccc(S(=O)(=O)N3CCOCC3)c2)c(O)c1
ECa-109 cell line [1]
  Activity: Dose-dependent effect
ECa-109 cell line [2]
  Activity: Dose-dependent effect
ECa-109 cell line [3]
  Activity: Dose-dependent effect
Mus musculus [4]
  Activity: Non-Toxic
EC9706 [5]
  Activity: Active
EC9706 [6]
  fold change (FC): 1.22
ECa-109 cell line [7]
  Activity: 13.3%
ECa-109 cell line [8]
  Activity: 26.9%
PC-3
  IC50: 5.8 µM
ECa-109 cell line [9]
  Activity: Dose-dependent effect
ECa-109 cell line [10]
  IC50: 2.79 µM
EC9706 [11]
  Activity: Dose-dependent effect
ECa-109 cell line [12]
  fold change (FC): 1.81
EC9706 [13]
  Activity: 34.2 - 61.2%
EC9706 [14]
  Activity: Dose-dependent effect
ECa-109 cell line [15]
  Activity: 17.4 - 31.1%
ECa-109 cell line [16]
  Activity: Active
ECa-109 cell line [17]
  Activity: Active
EC9706 [18]
  fold change (FC): 1.54
ECa-109 cell line [19]
  Activity: Dose-dependent effect
ECa-109 cell line [20]
  Activity: 17.8 - 22.4%
ECa-109 cell line [21]
  Activity: 4.45 - 11.3%
EC9706 [22]
  fold change (FC): 1.27
ECa-109 cell line [23]
  Activity: Active
Mus musculus [24]
  Activity: Non-Toxic
Mus musculus [25]
  Activity: Non-Toxic
ECa-109 cell line [26]
  Activity: inactive
EC9706 [27]
  fold change (FC): 1.7
GES1
  IC50: > 80 µM
EC9706 [28]
  Activity: 1.56%
ECa-109 cell line [29]
  fold change (FC): 1.4
EC9706 [30]
  Activity: 0.48 - 16.1%
EC9706 [31]
  Activity: 6.25%
ECa-109 cell line [32]
  fold change (FC): 1.9
ECa-109 cell line [33]
  Activity: Active
EC9706 [34]
  fold change (FC): 0.26
EC9706 [35]
  fold change (FC): 1.45
EC9706 [36]
  Activity: Active
EC9706 [37]
  Activity: 10.1%
